Reference: patent US20110301233A1, “Novel Polyisoprenylated Benzophenone Derivatives from Garcinia paucinervis” (priority 2010, published 2011)

Legend:
Type in all cases: cell-based
HeLa-C3 cells [1] = assay: Apoptosis-inducing effect: caspase-3 activation, YFP/CFP emission ratio (FRET biosensor) in HeLa-C3 cells; conditions: for Apoptotic effect at 25 μM / Apoptotic effect at 50 μM / Apoptotic effect at 100 μM: 72 h
Method: The biological activity of Compounds 1-4 was evaluated for apoptosis-inducing effects using genetically engineered HeLa-C3 cells that can produce a fluorescent biosensor capable of detecting caspase-3 activation. These cells emit a green light under normal growth conditions and change to a blue light when caspase-3 is activated during apoptosis to cleave the sensor protein inside the cells. This color change allows one to use a fluorescent plate reader to directly detect the activation level of caspase-3 in HeLa-C3 cells during the course of the compound treatment in a noninvasive way. Based on our previous test results, the emission ratio of YFP (yellow fluorescent protein)/CFP (cyanfluorescent proteins) is usually between 6 and 8 in normal cells, and this ratio will decrease to a value below 3 if a compound can activate caspase-3 and kill cancer cells. Therefore, any compound that can reduce the YFP/CFP emission ratio to a value below 3 is considered positive in activating apoptosis.
Bioassay: The bioassay method was described in our previous paper with some modifications. All the testing samples were dissolved in DMSO to make stock solutions. The concentration of each stock was at least 1000 times higher than the working concentration. HeLa-C3 cells, which can detect apoptotic cell death involving caspase activation, were cultured in minimum essential medium (MEM) containing 10% fetal bovine serum, 100 U/ml penicillin, […] streptomycin, in a 5% CO2 humidity incubator at 37° C. The sample well for apoptotic activity testing was prepared by seeding a well on a 96-well plate with 7500 HeLa-C3 cells suspended in 100 μl culture medium. After 12-16 h incubation, the old medium was removed and 100 μl freshly prepared culture medium containing the testing sample at a certain working concentration was added to both the sample well and the corresponding background well. Culture medium containing 0.1% DMSO was the negative control while 500 nM paclitaxel was the positive control. After that, the plate was read repeatedly by a Perkin-Elmer Victor reader with excitation wavelength at 440±10 nm and emission wavelength at 486±8 nm for CFP (cyan fluorescent protein) and 535±8 nm for YFP (yellow fluorescent protein) at indicated time points. The data acquisition duration was up to 72 h. The YFP/CFP emission ratio was then calculated. The background fluorescence was measured from the wells containing only medium. After subtracting the background fluorescence from the recorded signal, net YFP and CFP readings were obtained. In this paper, Y/C emission ratio is used to represent the effect of FRET, which is equal to the net YFP reading divided by the net CFP reading from the same well. If YFP/CFP emission ratio was reduced below 3, the testing sample was considered as a good apoptotic inducer at that concentration. All samples were tested in triplicate. The whole experiment was repeated for three times.

HeLa cells = assay: MTT assay, HeLa cell growth inhibition; conditions: for IC50: HeLa cells treated for 72 h, MTT; for HeLa cell growth inhibiting effect: HeLa cells, 72 h, IC50 below or near 10
Method: IC50 of four new compounds was measured using MTT assay. MTT powder was dissolved in PBS at a concentration of 5 mg/mL. For MTT assay, 10 μL of MTT solution was added into each well of a 96-well plate. After 2 h incubation at 37° C., 100 μL 10% SDS solution with 0.01 M HCl was added to dissolve the purple crystals. After 24 h incubation, the optical density (OD) readings at 595 nm were measured using a plate reader. Firstly, 2,500 HeLa cells suspended in 100 μL MEM medium were seeded respectively in a 96-well plate. After 24 h incubation, fresh medium that contained various concentrations of each compound were added into the 96-well plate and changed the old medium. The concentrations applied were ranged from 100 μM to 1.5625 μM, which was achieved by doing two-fold dilutions for 6 times. The OD values of the control group at 0 h and 72 h together with the compound treated groups at 72 h from the MTT assay were measured using a plate reader. IC50 is the concentration of a compound inhibiting 50% of the cell growth.

HeLa-C3 cells [2] = assay: Cell morphology changes during compound treatment (FIG. 5)
Method: Various cell morphologies were recorded at the indicated time points. The control cells have normal attached cell morphology through the course of the experiment. Cells have shrinkage and detached morphology when they were treated with either the anticancer drug paclitaxel or other compounds, confirming their ability to kill cancer cells.
In addition to detecting the caspase activation using our HeLa-C3 cells, the cell morphology changes was also examined after the treatment of the tested compounds.

Question: What does the source list for `CC(C)=CC[C@H]1C[C@@]23CC4(CCC(C)(C)C[C@]4(C)O)OC2=C(C(=O)c2ccc(O)c(O)c2)C(=O)[C@](CC=C(C)C)(C3=O)C1(C)C` (relative stereo) [Compound 1, Paucinone A]?
Answer: Apoptotic effect at 25 μM (HeLa-C3 cells [1]): + (“+” means the YFP/CFP emission ratio of compound treated HeLa-C3 cells was below 3 at 72 h.); Apoptotic effect at 50 μM (HeLa-C3 cells [1]): + (“+” means the YFP/CFP emission ratio of compound treated HeLa-C3 cells was below 3 at 72 h.); Apoptotic effect at 100 μM (HeLa-C3 cells [1]): + (“+” means the YFP/CFP emission ratio of compound treated HeLa-C3 cells was below 3 at 72 h.); IC50 (HeLa cells): 10 ± 0.5 µM; HeLa cell growth inhibiting effect (HeLa cells): strong HeLa cell growth inhibiting effects; cell morphology (HeLa-C3 cells [2]; 25 μM, 24, 48 and 72 h): cell shrinkage

Question: Which “Apoptotic effect at 25 μM” value (HeLa-C3 cells [1]) does the source give for `CC(C)=CC[C@H]1C[C@@]23CC4(CCC(C)(C)C[C@@]4(C)O)OC2=C(C(=O)c2ccc(O)c(O)c2)C(=O)[C@](CC=C(C)C)(C3=O)C1(C)C` (relative stereo) [Compound 2, Paucinone B] here?
Answer: + (“+” means the YFP/CFP emission ratio of compound treated HeLa-C3 cells was below 3 at 72 h.)

Question: And the “Apoptotic effect at 50 μM” value (HeLa-C3 cells [1])?
Answer: + (“+” means the YFP/CFP emission ratio of compound treated HeLa-C3 cells was below 3 at 72 h.)

Question: What about the “Apoptotic effect at 100 μM” value (HeLa-C3 cells [1]) of the same compound?
Answer: + (“+” means the YFP/CFP emission ratio of compound treated HeLa-C3 cells was below 3 at 72 h.)

Question: What about the IC50 (HeLa cells) of the same compound?
Answer: 8.2 ± 0.8 µM

Question: And the “HeLa cell growth inhibiting effect” value (HeLa cells)?
Answer: strong HeLa cell growth inhibiting effects

Question: And the cell morphology (HeLa-C3 cells [2]; 25 μM, 24, 48 and 72 h)?
Answer: cell shrinkage

Question: `CC(C)=CC[C@H]1C[C@@]23CC4(CCC(C)(C)C[C@]4(C)O)OC2=C(OC(=O)c2ccc(O)c(O)c2)C(=O)[C@](CC=C(C)C)(C3=O)C1(C)C` (relative stereo) [Compound 3, Paucinone C] was tested. Which “Apoptotic effect at 25 μM” value (HeLa-C3 cells [1]) did it give?
Answer: − (“−” means the YFP/CFP emission ratio of compound treated HeLa-C3 cells was above 3 at 72 h.)

Question: What about the “Apoptotic effect at 50 μM” value (HeLa-C3 cells [1]) of the same compound?
Answer: + (“+” means the YFP/CFP emission ratio of compound treated HeLa-C3 cells was below 3 at 72 h.)

Question: What about the “Apoptotic effect at 100 μM” value (HeLa-C3 cells [1]) of the same compound?
Answer: + (“+” means the YFP/CFP emission ratio of compound treated HeLa-C3 cells was below 3 at 72 h.)

Question: What about the caspase-3 activation (HeLa-C3 cells [1]; within 72 h at 100 μM and 50 μM) of the same compound?
Answer: could activate caspase-3

Question: And the IC50 (HeLa cells)?
Answer: 24.3 ± 0.6 µM

Question: And the cell morphology (HeLa-C3 cells [2]; 50 μM, 24, 48 and 72 h)?
Answer: cell shrinkage

Question: How did the “Apoptotic effect at 25 μM” value (HeLa-C3 cells [1]) turn out when `C=C1CCCC(C)(C)[C@H]1C[C@H]1C[C@@]23CC(C(C)(C)O)OC2=C(C(=O)c2ccc(O)c(O)c2)C(=O)[C@](CC=C(C)C)(C3=O)C1(C)C` (relative stereo) [Compound 4, Paucinone D] was run?
Answer: + (“+” means the YFP/CFP emission ratio of compound treated HeLa-C3 cells was below 3 at 72 h.)

Question: And the “Apoptotic effect at 50 μM” value (HeLa-C3 cells [1])?
Answer: + (“+” means the YFP/CFP emission ratio of compound treated HeLa-C3 cells was below 3 at 72 h.)

Question: What about the “Apoptotic effect at 100 μM” value (HeLa-C3 cells [1]) of the same compound?
Answer: + (“+” means the YFP/CFP emission ratio of compound treated HeLa-C3 cells was below 3 at 72 h.)

Question: What about the IC50 (HeLa cells) of the same compound?
Answer: 5.8 ± 0.6 µM

Question: What about the “HeLa cell growth inhibiting effect” value (HeLa cells) of the same compound?
Answer: strong HeLa cell growth inhibiting effects

Question: And the cell morphology (HeLa-C3 cells [2]; 25 μM, 24, 48 and 72 h)?
Answer: cell shrinkage

Question: For `CC(=O)O[C@H]1C(=O)[C@@]2(C)[C@H]([C@H](OC(=O)c3ccccc3)[C@]3(O)C[C@H](OC(=O)[C@H](O)[C@@H](NC(=O)c4ccccc4)c4ccccc4)C(C)=C1C3(C)C)[C@]1(OC(C)=O)CO[C@@H]1C[C@@H]2O` [paclitaxel, reference compound], which cell morphology (HeLa-C3 cells [2]; 500 nM, positive control) is on record?
Answer: typical cell shrinkage morphology
